From patent publication US10544138B2, “Tricyclic kinase inhibitors of MELK and methods of use” (Dana-Farber Cancer Institute, Inc., priority 2015, dated 2020)
pIC50: −log10 of the molar value. “And” between values parts separate entries of the source, which are not always exact repeats. Identical values can stand only once.

Tests used:
Aurora A = target: T1, Aurora A (Homo sapiens, UniProt O14965); experiment: Recombinant mitotic kinase assay, Aurora A; assay type: biochemical; conditions: recombinant kinases
T1 sequence (O14965 1-403): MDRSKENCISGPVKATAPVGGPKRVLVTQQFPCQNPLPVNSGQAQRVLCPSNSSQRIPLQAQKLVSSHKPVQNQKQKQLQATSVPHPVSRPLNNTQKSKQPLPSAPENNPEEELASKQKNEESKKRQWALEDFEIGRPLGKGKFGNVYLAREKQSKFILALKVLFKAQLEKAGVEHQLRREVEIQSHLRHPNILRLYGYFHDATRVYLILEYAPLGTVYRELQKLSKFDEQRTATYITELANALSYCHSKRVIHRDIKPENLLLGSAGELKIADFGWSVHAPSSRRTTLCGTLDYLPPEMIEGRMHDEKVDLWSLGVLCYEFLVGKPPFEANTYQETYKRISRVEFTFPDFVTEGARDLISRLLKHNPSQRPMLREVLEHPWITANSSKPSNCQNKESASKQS
Protocol: (§1) […] assays were performed with recombinant protein of the indicated mitotic kinase (left) and AMPK family kinases (right) in the presence of THZ-4-63-1. […] Cells were treated with nocodazole (100 ng/ml) for 18 h or not treated (Asyn., asynchronous). Nocodazole-arrested mitotic cells (M) were isolated via shake-off. The attached cells enriched in G2 phase (G2) were harvested. A portion of the mitotic cells were washed off nocodazole and released into G1 phase after 4 hours of incubation (G1). […] In Panel D, mitotic lysates were prepared from the indicated cells, and treated with λ-phosphatase at 30° C. In Panel E, nocodazole-arrested mitotic cells were treated with increasing concentration of THZ-4-63-1 for 30 min. Cell lysates were subjected to immunoblotting.
(§2) To discover a selective MELK inhibitor, a few molecule scaffolds with the potential of binding to MELK were identified, including 2,4-disubstituted pyrimidines and benzonaphthyridinones. […] To investigate if THZ-4-63-1 confers selective inhibition on MELK, we tested its effect on other mitotic kinases. In assays using recombinant kinases, MELK kinase activity was 20-fold more sensitive to THZ-4-63-1, than that of Aurora A, Aurora B, CDK1, or PLK1 (FIG. 1B).

mitotic cells = experiment: Mitotic cell death, time-lapse imaging; assay type: cell-based
Protocol: U2OS-GFP-H2B cells were treated with vehicle control (0.02% DMSO, v/v) or 1 μM THZ-4-63-1, and subjected to live imaging. Time is given in hours:minutes, relative to the initial time of drug treatment. The arrow points to chromosomes that haven't incorporated into the metaphase plate. […] MDA-MB-468 cells expressing tet-on-shMELK and GFPH2B cells were treated with doxycycline for three days, before subjected to live imaging. Panel D contains images of immunoblotting of lysates from cells treated as in Panel C. Panel E contains images showing mitotic cell death in a cell treated with THZ-4-63-1. The table indicates the quantification of cell death events. Panel F contains images showing that treatment with THZ-4-63-1 impairs chromosome alignment. Cells were treated with DMSO control, or THZ-4-63-1 (5 μM) for 4 hours, followed by MG132 (10 μM) for 1 h. Cells were fixed and stained with anti-CREST, anti-α-tubulin, and DAPI to visualize chromosomes and kinetochores. The histogram indicates the quantifications of cells in metaphase with misaligned chromosomes.
Perturbation of normal mitotic kinetic can lead to various cellular outcomes including cell death.

BRSK1 = target: T2, BRSK1 (Homo sapiens, UniProt Q8TDC3); experiment: Recombinant AMPK family kinase assay, BRSK1; assay type: biochemical; conditions: recombinant kinases
T2 sequence (Q8TDC3 1-778): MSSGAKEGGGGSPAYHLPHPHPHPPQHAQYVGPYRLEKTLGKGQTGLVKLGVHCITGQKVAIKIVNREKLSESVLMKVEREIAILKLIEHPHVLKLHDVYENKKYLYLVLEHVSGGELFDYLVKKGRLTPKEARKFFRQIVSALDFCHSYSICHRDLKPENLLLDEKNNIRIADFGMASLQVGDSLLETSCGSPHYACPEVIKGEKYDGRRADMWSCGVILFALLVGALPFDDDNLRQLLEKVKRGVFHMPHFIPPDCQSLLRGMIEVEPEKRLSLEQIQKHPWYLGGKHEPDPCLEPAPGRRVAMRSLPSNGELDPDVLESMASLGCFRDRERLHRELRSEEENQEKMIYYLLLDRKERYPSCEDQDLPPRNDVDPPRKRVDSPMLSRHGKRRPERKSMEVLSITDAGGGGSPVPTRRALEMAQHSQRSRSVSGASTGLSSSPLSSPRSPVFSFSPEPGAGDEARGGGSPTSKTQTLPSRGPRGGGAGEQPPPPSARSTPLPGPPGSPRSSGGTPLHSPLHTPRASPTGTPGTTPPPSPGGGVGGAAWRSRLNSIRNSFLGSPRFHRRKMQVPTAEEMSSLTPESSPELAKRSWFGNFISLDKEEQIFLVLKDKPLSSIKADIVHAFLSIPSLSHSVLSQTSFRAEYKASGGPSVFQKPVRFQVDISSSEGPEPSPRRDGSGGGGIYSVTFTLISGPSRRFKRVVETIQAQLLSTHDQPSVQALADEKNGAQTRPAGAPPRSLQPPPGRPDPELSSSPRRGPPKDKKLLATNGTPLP
Protocol: as §1, §2

MELK = MELK (Homo sapiens, UniProt Q14680); experiment: Z′-LYTE biochemical assay, MELK inhibition; design: purchased Life Technologies; conditions: 25 uM ATP concentration; read-out: MELK IC50 as determined by Z′-LYTE biochemical assay
Protocol: The invention also provides methods for inhibiting MELK, comprising contacting MELK with a compound of the invention in an amount effective to inhibit MELK. In certain embodiments, the method is conducted in vitro. In certain embodiments, the method is conducted in vivo. Inhibition of MELK can be determined by the Z′-LYTE® biochemical assay from Life Technologies (Life Technologies Z′-LYTE® Screening Protocol and Assay Conditions, June 2012, incorporated herein by reference).
Generally, IC50 against MELK was determined by Z′-LYTE® biochemical assay and are measured in nM at 25 uM ATP concentration.

Sequence of MELK (Q14680 whole entry): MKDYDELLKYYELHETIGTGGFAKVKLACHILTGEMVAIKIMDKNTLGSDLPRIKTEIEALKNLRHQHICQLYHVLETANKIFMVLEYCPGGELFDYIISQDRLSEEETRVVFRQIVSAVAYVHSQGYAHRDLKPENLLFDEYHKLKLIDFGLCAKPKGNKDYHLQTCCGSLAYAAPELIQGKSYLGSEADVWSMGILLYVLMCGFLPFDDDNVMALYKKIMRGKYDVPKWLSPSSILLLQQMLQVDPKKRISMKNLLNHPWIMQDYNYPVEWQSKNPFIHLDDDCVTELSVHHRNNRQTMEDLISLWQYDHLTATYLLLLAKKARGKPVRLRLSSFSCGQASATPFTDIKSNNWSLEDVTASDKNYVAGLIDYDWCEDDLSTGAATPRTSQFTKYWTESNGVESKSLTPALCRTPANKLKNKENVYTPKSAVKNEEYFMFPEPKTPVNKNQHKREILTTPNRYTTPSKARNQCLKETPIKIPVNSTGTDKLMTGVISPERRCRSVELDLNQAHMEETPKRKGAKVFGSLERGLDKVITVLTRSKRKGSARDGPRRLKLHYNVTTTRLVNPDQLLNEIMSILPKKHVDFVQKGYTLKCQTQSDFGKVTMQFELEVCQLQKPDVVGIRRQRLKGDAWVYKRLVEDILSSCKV

SMILES: CN(C)Cc1ccc(-n2c(=O)ccc3cnc4ccc(-c5cc(Cl)c(O)c(Cl)c5)cc4c32)cc1 [THZ-4-63-1]
- MELK kinase activity more sensitive than that of Aurora A (Aurora A): 20 fold
- Mitotic cell death (mitotic cells): efficiently induced mitotic cell death
- Selectivity for MELK over BRSK1 (BRSK1): preferentially targets MELK
- pIC50 (MELK): 7.97 and 7.98
